Assay results published in patent US7342018B2, “Urokinase inhibitors and uses thereof” (Wilex AG, priority 1998, dated 2008).
Where “and” joins values, the source holds several entries; their conditions need not be identical. Identical values can stand only once.

Assays:
Thrombin = Thrombin (Homo sapiens, UniProt P00734); experiment: In vitro inhibition of serine proteases: thrombin; assay type: biochemical
Experimental: Ki values were determined according to Dixon by linear regression using a computer program.

Plasma kallikrein = Plasma kallikrein (Homo sapiens, UniProt P03952); experiment: In vitro inhibition of serine proteases: plasma kallikrein; assay type: biochemical
Experimental: (§1) To determine the inhibitory activity, 200 μl of Tris buffer (0.05 mol/l, containing the inhibitor, 0.154 mol/l NaCl, 5% ethanol pH 8.0), 25 μl of substrate (Pefachrome UK or Bz-βAla-Gly-Arg-pNA in H2O; Pentapharm Ltd., Basle, Switzerland) and 50 μl of sc-urokinase (Ribosepharm GmbH, Haan, Germany) were incubated at 25° C. After 3 min the reaction was stopped by adding 25 μl of acetic acid (50%), and the absorption at 405 nm was determined by means of a Microplate Reader (MR 5000, Dynatech, Denkendorf, Germany). Ki values were determined according to Dixon by linear regression using a computer program. The Ki values are the mean values of at least three determinations with a standard deviation of less than 25%.
(§2) The inhibition activities of the enzymes used were determined according to the principle described in Example 3.

Tryptase = Tryptase (Homo sapiens, UniProt Q15661); experiment: In vitro inhibition of serine proteases: tryptase; assay type: biochemical
Experimental: as §1, §2

[1] = tested on: human ovarian carcinoma cells OV-MZ-6; experiment: Cytotoxicity determination (tetrazolium salt conversion, Promega); assay type: cell-based
From the text: To determine cell proliferation/cytotoxicity a commercially available test was used (Promega) which is based on the cellular conversion of a tetrazolium salt. The colored product resulting from this reaction can be quantified by means of an ELISA spectrometer (ICN flow). The synthetic inhibitor (open circles) had no effect on the growth of the human ovarian carcinoma cells OV-MZ-6 (FIG. 1) when compared with the solvent alone (closed circles). Thus, the inventive uPA inhibitor is not cytotoxic in pharmacologically effective concentrations up to 40 μM.

[2] = tested on: human breast carcinoma cells; experiment: Fibrin matrix degradation assay (D dimer ELISA); assay type: cell-based; settings: different concentrations, 4 h (FIG. 2)
Experimental: To study the potential of tumor cells for breaking down an extracellular matrix, a fibrin matrix degradation assay was developed and used. A greater proteolytic activity of the tumor cells leads to a higher concentration of fibrin degradation products in the matrix supernatant. The matrix degradation capacity corresponds to the concentration of fibrin degradation products which are determined by means of ELISA (D dimer).
The fibrin gels were prepared in 24-well culture dishes from […] of fibrinogen (50 mg/ml) in PBS (pH 7.4), by 50 μl of thrombin (10 U/ml) and 50 μl of CaCl2 (150 mM) per well after incubation at 37° C. for 30 minutes. 2×10^5 breast carcinoma cells were seeded on said fibrin matrix in 1 ml of DMEM culture medium plus 10% fetal calf serum and 2 μg of Glu-plasminogen, and incubated for 4 h. The supernatant was then centrifuged, in order to remove the cells, and the fibrin degradation products were quantified by means of ELISA.

[3] = tested on: BN-472 breast cancer tumor; experiment: Breast cancer model in rats (Example 7); assay type: in vivo; settings: for average tumor weights at the end of the treatment, reduced to % of vehicle-treated control / mean weights of the axillary lymph nodes, reduced to % of control / number of lung foci, reduced to % of control: 1 mg/kg daily
Experimental: 10-25 mm^3 of BN-472 breast cancer tumor fragments from rats were transplanted into female brown Norwegian rats from 6 to 7 weeks old, subcutaneously and orthotopically under the subcutaneous fat of the mammary gland (Day 0). The treatment of the animals was started intraperitoneally 24 hours after tumor inoculation. Each group consisted of eight animals. The control group received only the injection solution (100 μl of a 10% ethanol/saline (0.9% NaCl) solution). A dose of 1 mg/kg body weight was intraperitoneally administered on a daily basis to the comparative group of the naphthyl derivative. (B) and to the therapy group of the inventive uPA inhibitor (A). The treatment was carried out over a period of 4 weeks.
The dimensions of the subcutaneous tumors and the weight of the animals were determined weekly. At the end of the treatment the animals were sacrificed and tumor weights, organ weights and the number of metastases in relevant tissues were determined.
The experiments described in sections A and B were repeated with the inhibitor administered in a different way. For this, the inhibitor was administered subcutaneously in the breast carcinoma model (n=9) and intraperitoneally in the pancreatic adenocarcinoma model (n=8) without changing the daily dose. The results of these repeat experiments corresponded to the results already discussed, both in tendency and extent.

[4] = Biodistribution of the inhibitor in rats (HPLC of tissue extracts); assay type: in vivo, rat; settings: for concentration in tracheal lymph nodes: two independent experiments, hydrochloride
Experimental: The biodistribution of the inhibitor was determined by two independent experiments in tissue extracts of rats which had been treated once a day with 1 mg/kg i.p. of inhibitor i.p. over a period of 5 or 10 days. For the lysis, in each case 100 mg of tissue were mechanically comminuted and mixed with 200 μl of 1% Triton X-100 in physiological NaCl solution. After adding 400 μl of ethanol, the mixture was sonicated for 1 min. The tissue extract was centrifuged at 12,000×g for 15 min. For prepurification, the supernatant was applied to a C18 Silica Reversed Phase column (Sep-Pak® cartridge C18, 1 ml Water, Eschborn, Germany), equilibrated with 1 ml of methanol and 1 ml of water, washed successively with 2×1 ml H2O, 1 ml 10% methanol, 1 ml H2O, 1 ml 5% acetonitrile, 0.04% perchloric acid and 1 ml H2O and eluted with 500 μl of 75% acetonitrile, 0.04% perchloric acid. HPLC analysis was carried out on a reversed phase C18 silica column with a 5-55% strength acetonitrile gradient containing 0.04% perchloric acid.

[5] = concluded from plasma vs tissue concentrations

Plasma kallikrein, sequence (P03952 20-638, species assumed): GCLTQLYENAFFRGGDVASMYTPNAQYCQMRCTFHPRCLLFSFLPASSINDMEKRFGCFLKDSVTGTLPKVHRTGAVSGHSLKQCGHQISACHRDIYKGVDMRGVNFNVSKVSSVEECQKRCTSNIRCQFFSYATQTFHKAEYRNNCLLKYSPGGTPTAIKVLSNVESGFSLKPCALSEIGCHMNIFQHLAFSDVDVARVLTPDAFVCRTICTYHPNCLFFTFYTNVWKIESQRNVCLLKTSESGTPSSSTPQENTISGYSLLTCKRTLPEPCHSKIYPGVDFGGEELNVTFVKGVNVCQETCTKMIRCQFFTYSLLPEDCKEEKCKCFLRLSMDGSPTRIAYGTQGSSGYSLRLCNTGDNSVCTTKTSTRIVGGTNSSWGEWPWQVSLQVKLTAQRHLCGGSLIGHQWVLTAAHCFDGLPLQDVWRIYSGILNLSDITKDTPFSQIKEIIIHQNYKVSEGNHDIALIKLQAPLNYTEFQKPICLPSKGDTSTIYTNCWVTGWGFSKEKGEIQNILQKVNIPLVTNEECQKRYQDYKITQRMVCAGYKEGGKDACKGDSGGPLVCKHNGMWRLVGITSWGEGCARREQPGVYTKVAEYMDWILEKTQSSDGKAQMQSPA
Tryptase, sequence (Q15661 31-275): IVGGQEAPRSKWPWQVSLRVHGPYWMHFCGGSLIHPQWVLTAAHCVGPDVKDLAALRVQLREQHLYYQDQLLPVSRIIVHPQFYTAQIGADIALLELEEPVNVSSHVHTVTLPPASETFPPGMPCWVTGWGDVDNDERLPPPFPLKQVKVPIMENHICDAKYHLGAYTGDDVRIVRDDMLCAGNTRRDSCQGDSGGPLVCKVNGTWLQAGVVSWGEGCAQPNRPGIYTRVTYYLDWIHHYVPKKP

`CCOC(=O)N1CCN(C(=O)[C@H](Cc2cccc(C(=N)N)c2)NS(=O)(=O)c2c(C(C)C)cc(C(C)C)cc2C(C)C)CC1.Cl` [uPA inhibitor, Nα-2,4,6-Triisopropylphenylsulfonyl-(L)-3-amidinophenylalanine 4-ethoxycarbonylpiperazide hydrochloride] gave a Ki (Thrombin) of 0.49 µM, a Ki (Plasma kallikrein) of 7.2 µM and a Ki (Tryptase) of 6.3 µM. For the same compound, the “effect on the growth of OV-MZ-6 cells” value ([1]; compared with the solvent alone (FIG. 1)) was “no effect”, the cytotoxicity ([1]; concentrations up to 40 μM) was “not cytotoxic” and the “inhibition of fibrin matrix degradation by breast carcinoma cells” value [2] was “significant inhibition”. The “weights of lung, liver, kidney and spleen” value ([3]; 1 mg/kg i.p. daily, 4 weeks, compared to control animals) was “unchanged”, the “weight of the primary tumor” value ([3]; 1 mg/kg i.p. daily, 4 weeks, p=0.003 vs naphthyl derivative (B) and control) was “significant reduction” and the “weight of the axillary lymph nodes” value ([3]; 1 mg/kg i.p. daily, 4 weeks, p=0.005 vs naphthyl derivative (B) and control) was “significant reduction”. The “toxicity (body weight increase, organ weights)” value ([3]; breast and pancreatic tumor models in rats, inhibitor-treated vs vehicle-treated groups) was “no indications of any considerable toxicity”, the “average tumor weights at the end of the treatment, reduced to % of vehicle-treated control” value ([3]; i.p.) was 23% and the “mean weights of the axillary lymph nodes, reduced to % of control” value ([3]; i.p.) was 27%. For the same compound, the “number of lung foci, reduced to % of control” value ([3]; i.p.) was 9%, the “number of metastatic lung foci” value ([3]; rat breast cancer model, vs vehicle-treated controls) was “substantially reduced” and the “sizes of subcutaneous tumors” value ([3]; rat pancreatic and breast cancer models, vs vehicle-treated controls) was “reduced”. For the same compound, the “average tumor weights at the end of the treatment, reduced to % of vehicle-treated control” value ([3]; s.c.) was 37%, the “mean weights of the axillary lymph nodes, reduced to % of control” value ([3]; s.c.) was 48% and the “number of lung foci, reduced to % of control” value ([3]; s.c.) was 32%. The “Content Bile” value ([4]; 1 mg/kg i.p. 5 days) was 1.96 µg/mL, the “Content Brain” value ([4]; 1 mg/kg i.p. 5 days) was under 0.5 µg/g and the “Content Fat/kidney” value ([4]; 1 mg/kg i.p. 5 days) was 0.82 µg/g. For the same compound, the “Content Heart” value ([4]; 1 mg/kg i.p. 5 days) was under 0.5 µg/g, the “Content Kidney” value ([4]; 1 mg/kg i.p. 5 days) was 2.67 µg/g and the “Content Liver” value ([4]; 1 mg/kg i.p. 5 days) was 2.85 µg/g. The “Content Lung” value ([4]; 1 mg/kg i.p. 5 days) was 3.70 µg/g, the “Content Lymph nodes/trachea” value ([4]; 1 mg/kg i.p. 5 days) was 7.45 µg/g and the “Content Muscle” value ([4]; 1 mg/kg i.p. 5 days) was 0.74 µg/g. For the same compound, the “Content Plasma” value ([4]; 1 mg/kg i.p. 5 days) was 0.008 µg/mL, the “Content Spleen” value ([4]; 1 mg/kg i.p. 5 days) was 2.02 µg/g and the Content lymph nodes/axillary ([4]; 1 mg/kg i.p. 5 days) was 1.97 µg/g. The Content lymph nodes/knee ([4]; 1 mg/kg i.p. 5 days) was 7.83 µg/g, the “Content Bile” value ([4]; 1 mg/kg i.p. 10 days) was 1.75 µg/mL and the “Content Brain” value ([4]; 1 mg/kg i.p. 10 days) was under 0.5 µg/g. The “Content Fat/kidney” value ([4]; 1 mg/kg i.p. 10 days) was 1.0 µg/g, the “Content Heart” value ([4]; 1 mg/kg i.p. 10 days) was 1.09 µg/g and the “Content Kidney” value ([4]; 1 mg/kg i.p. 10 days) was 2.48 µg/g. The “Content Liver” value ([4]; 1 mg/kg i.p. 10 days) was 2.08 µg/g, the “Content Lung” value ([4]; 1 mg/kg i.p. 10 days) was 1.81 µg/g and the “Content Lymph nodes/trachea” value ([4]; 1 mg/kg i.p. 10 days) was 16.38 µg/g. For the same compound, the “Content Muscle” value ([4]; 1 mg/kg i.p. 10 days) was under 0.5 µg/g, the “Content Plasma” value ([4]; 1 mg/kg i.p. 10 days) was 0.035 µg/mL and the “Content Spleen” value ([4]; 1 mg/kg i.p. 10 days) was 2.48 µg/g. For the same compound, the Content lymph nodes/axillary ([4]; 1 mg/kg i.p. 10 days) was 2.74 µg/g, the Content lymph nodes/knee ([4]; 1 mg/kg i.p. 10 days) was 3.8 µg/g and the “plasma concentrations relative to the mean tissue concentrations” value ([4]; 24 h after the last i.p. administration) was “one to two orders of magnitude below”. The “concentration in tracheal lymph nodes” value ([4]; after 5 days of administration) was 5.3 µg/g and 7.5 µg/g, the “concentration in tracheal lymph nodes” value ([4]; after 10 days of administration) was 21.6 µg/g and 16.4 µg/g and the plasma protein binding [4, 5] was “low plasma protein binding”. For the same compound, the tissue affinity [4, 5] was “high tissue affinity” and the “accumulation in lymph nodes” value ([4]; rat, in vivo) was “noticeable accumulation”.
